Test results: ChEMBL document CHEMBL4024707, “Using gene expression database to uncover biology functions of 1,4-disubstituted 1,2,3-triazole analogues synthesized via a copper (I)-catalyzed reaction” (Eur J Med Chem, 2017)
Activity calls are given as the source filed them. The calls are words filed in the database; no cut-off is given here.

Columns and labels:
Hep 3B2 [1] = assay: Cytotoxicity against human Hep3B cells after 6 days by MTT assay; assay type: functional, cell-based; conditions: 144 h
HT-29 = assay: Cytotoxicity against human HT-29 cells after 6 days by MTT assay; assay type: functional, cell-based; conditions: HT-29, 144 h
Hep 3B2 [2] = assay: Growth inhibition of human Hep3B cells at 30 uM after 48 hrs by MTT assay; assay type: functional, cell-based
Hep 3B2 [3] = assay: Cell cycle arrest in human Hep3B cells assessed as accumulation at sub-G1 phase at 30 uM after 48 hrs by propidium iodide staining based flow cytometry (reference value: 3.7 +/- 0.4%); assay type: functional
Hep 3B2 [4] = assay: Induction of apoptosis in human Hep3B cells assessed as ratio of cleaved caspase-3 to beta actin level at 30 uM after 48 hrs by Western blot analysis; assay type: functional
Hep 3B2 [5] = assay: Induction of autophagy in human Hep3B cells assessed as ratio of LC3-2 to beta-actin level at 30 uM after 48 hrs by Western blot analysis; assay type: functional
Hep 3B2 [6] = assay: Cell cycle arrest in human Hep3B cells assessed as accumulation at G0/G1 phase at 30 uM after 48 hrs by propidium iodide staining based flow cytometry (reference value: […] +/- […]%); assay type: functional
Hep 3B2 [7] = assay: Cell cycle arrest in human Hep3B cells assessed as accumulation at G2/M phase at 30 uM after 48 hrs by propidium iodide staining based flow cytometry (reference value: 36.6 +/- 2.9%); assay type: functional
Hep 3B2 [8] = assay: Cell cycle arrest in human Hep3B cells assessed as accumulation at S phase at 30 uM after 48 hrs by propidium iodide staining based flow cytometry (reference value: 23.8 +/- 1.9%); assay type: functional

Row | SMILES | IC50 (Hep 3B2 [1]) [µM] | IC50 (HT-29) [µM] | also measured
1 | CCOC(=O)Cn1cc(CN2C(=O)COc3ccccc32)nn1 | 19 | 36.4 | –
2 | O=C1COc2ccccc2N1Cc1cn(Cc2cccc3ccccc23)nn1 | 15.2 | 17 | –
3 | O=C1COc2cccnc2N1Cc1cn(Cc2ccccc2)nn1 | 8.7 | 12.8 | –
4 | CCC1Oc2ccccc2N(Cc2cn(Cc3ccccc3)nn2)C1=O (stereo unspecified) | > 100 | > 100 | –
5 | O=C1COc2ccccc2N1Cc1cn(Cc2ccc(Cl)cc2)nn1 | > 100 | 21.9 | –
6 | CCCCCCn1cc(CN2C(=O)COc3ccccc32)nn1 | > 100 | 34.4 | –
7 | COc1cc(/C=C/C(=O)CC(=O)/C=C/c2ccc(O)c(OC)c2)ccc1O [CURCUMIN] | – | – | growth inhibition (GI) (Hep 3B2 [2]): Active; Activity (Hep 3B2 [3]): 14.2%; Ratio (Hep 3B2 [4]): 1.2; Ratio (Hep 3B2 [5]): 6.6; Activity (Hep 3B2 [6]): 22.7%; Activity (Hep 3B2 [7]): 46.7%; Activity (Hep 3B2 [8]): 16.4%
8 | O=C1COc2ccc(Cl)cc2N1Cc1cn(Cc2ccccc2)nn1 | 55.5 | 76.5 | –
9 | O=C1COc2ccccc2N1Cc1cn(C/C=C/c2ccccc2)nn1 | 38.9 | > 100 | –
10 | Cc1ccc2c(c1)OCC(=O)N2Cc1cn(Cc2ccccc2)nn1 | > 100 | 54.9 | –
11 | O=C1COc2ccc(F)cc2N1Cc1cn(Cc2ccccc2)nn1 | > 100 | > 100 | –
12 | O=C1C(c2ccccc2)Oc2ccccc2N1Cc1cn(Cc2ccccc2)nn1 (stereo unspecified) | > 100 | > 100 | –
13 | COc1ccc2c(c1)N(Cc1cn(Cc3ccccc3)nn1)C(=O)CO2 | > 100 | > 100 | –
14 | CCCC1Oc2ccccc2N(Cc2cn(Cc3ccccc3)nn2)C1=O (stereo unspecified) | 61.8 | > 100 | –
15 | O=C1COc2ccccc2N1Cc1cn(Cc2ccccc2)nn1 | 84.5 | > 100 | –
16 | COc1ccc(Cn2cc(CN3C(=O)COc4ccccc43)nn2)cc1 | > 100 | 18.5 | –
17 | Cc1ccc2c(c1)N(Cc1cn(Cc3ccccc3)nn1)C(=O)CO2 | > 100 | > 100 | –
18 | COc1ccc2c(c1)OCC(=O)N2Cc1cn(Cc2ccccc2)nn1 | 9.2 | 9.3 | –
19 | Cc1cc2c(cc1Cl)N(Cc1cn(Cc3ccccc3)nn1)C(=O)CO2 | > 100 | 19.6 | –
20 | CC(C)(C)c1ccc(Cn2cc(CN3C(=O)COc4ccccc43)nn2)cc1 | 25.6 | 25.1 | –
21 | COC(=O)Cn1cc(CN2C(=O)COc3ccccc32)nn1 | > 100 | 50.8 | –
22 | O=C1COc2ccccc2N1Cc1cn(CCc2c[nH]c3ccccc23)nn1 | 70 | 15.2 | –
23 | O=C1COc2ccccc2N1Cc1cn(CCc2ccccc2)nn1 | 66 | 48.8 | –
24 | Cc1ccc(Cn2cc(CN3C(=O)COc4ccccc43)nn2)cc1 | > 100 | 28.6 | –
25 | O=C1COc2ccccc2N1Cc1cn(Cc2ccc3ccccc3n2)nn1 | > 100 | > 100 | –
26 | O=C1COc2cc(F)ccc2N1Cc1cn(Cc2ccccc2)nn1 | 0.9 | > 100 | –
27 | O=C1COc2ccccc2N1Cc1cn(Cc2ccc([N+](=O)[O-])cc2)nn1 | 29.6 | 15.6 | –
28 | CCOC(=O)c1ccc2c(c1)N(Cc1cn(Cc3ccccc3)nn1)C(=O)CO2 | 17.1 | 41.5 | –
